# Results as given in patent US9730940B2, “Purine inhibitors of human phosphatidylinositol 3-kinase delta” (priority 2012, dated 2017).
# Target: PI3K-alpha (Homo sapiens (Human), UniProt P42336)
# Test: HTRF PI3K biochemical assay, alpha isoform
# Details: ratio PI3K-alpha IC50 value/PI3K-delta IC50 value
# PI3K-alpha, sequence (P42336 whole entry, looked up, canonical isoform): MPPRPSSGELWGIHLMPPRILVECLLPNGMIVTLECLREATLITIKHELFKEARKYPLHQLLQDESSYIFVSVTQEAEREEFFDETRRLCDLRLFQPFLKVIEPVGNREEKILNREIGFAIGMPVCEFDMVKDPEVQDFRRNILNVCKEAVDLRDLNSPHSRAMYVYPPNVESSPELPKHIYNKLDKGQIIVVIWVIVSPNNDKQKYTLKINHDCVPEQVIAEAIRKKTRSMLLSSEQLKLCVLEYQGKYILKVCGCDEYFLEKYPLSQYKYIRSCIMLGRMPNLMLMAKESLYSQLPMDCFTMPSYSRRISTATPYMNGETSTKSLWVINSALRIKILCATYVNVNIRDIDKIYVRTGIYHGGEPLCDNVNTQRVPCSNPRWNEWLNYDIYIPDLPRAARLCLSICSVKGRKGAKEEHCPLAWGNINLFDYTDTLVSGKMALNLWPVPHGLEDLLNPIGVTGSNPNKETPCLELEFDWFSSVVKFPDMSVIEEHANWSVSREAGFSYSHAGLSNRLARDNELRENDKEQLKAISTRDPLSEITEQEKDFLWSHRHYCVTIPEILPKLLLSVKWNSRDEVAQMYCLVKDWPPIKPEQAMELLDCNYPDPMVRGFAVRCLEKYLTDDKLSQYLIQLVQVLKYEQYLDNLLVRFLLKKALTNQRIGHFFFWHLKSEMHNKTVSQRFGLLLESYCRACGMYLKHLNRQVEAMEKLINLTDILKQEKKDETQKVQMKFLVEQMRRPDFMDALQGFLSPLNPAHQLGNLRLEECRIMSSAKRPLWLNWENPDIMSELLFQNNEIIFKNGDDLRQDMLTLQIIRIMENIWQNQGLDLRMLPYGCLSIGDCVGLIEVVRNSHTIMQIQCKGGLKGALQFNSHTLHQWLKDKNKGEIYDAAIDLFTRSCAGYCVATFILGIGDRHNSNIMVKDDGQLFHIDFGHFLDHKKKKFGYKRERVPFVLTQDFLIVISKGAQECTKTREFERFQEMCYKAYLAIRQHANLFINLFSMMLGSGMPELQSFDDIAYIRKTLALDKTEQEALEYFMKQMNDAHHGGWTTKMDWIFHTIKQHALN
# PI3K-alpha, sequence (P27986 whole entry partner, looked up, canonical isoform): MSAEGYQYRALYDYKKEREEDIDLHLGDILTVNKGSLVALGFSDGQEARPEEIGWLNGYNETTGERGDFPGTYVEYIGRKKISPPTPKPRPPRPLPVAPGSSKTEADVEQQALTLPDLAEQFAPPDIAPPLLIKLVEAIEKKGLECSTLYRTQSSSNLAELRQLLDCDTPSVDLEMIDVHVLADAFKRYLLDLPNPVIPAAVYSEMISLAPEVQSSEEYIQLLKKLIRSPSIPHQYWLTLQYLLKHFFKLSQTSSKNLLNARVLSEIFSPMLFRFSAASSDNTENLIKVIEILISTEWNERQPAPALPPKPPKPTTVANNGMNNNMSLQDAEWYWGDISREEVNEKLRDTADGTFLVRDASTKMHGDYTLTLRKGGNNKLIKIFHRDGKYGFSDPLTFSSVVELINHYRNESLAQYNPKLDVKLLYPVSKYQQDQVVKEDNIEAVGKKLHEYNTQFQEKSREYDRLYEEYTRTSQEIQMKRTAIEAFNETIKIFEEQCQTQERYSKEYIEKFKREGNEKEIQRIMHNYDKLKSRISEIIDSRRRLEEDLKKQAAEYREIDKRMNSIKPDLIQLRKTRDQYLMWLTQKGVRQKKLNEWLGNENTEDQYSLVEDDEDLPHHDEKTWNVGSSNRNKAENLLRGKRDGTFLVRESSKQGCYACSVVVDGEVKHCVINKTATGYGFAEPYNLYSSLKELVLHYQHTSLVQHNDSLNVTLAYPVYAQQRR
row,Compound,Relative Selectivity versus PI3Kalpha
1,"CCn1ncc(-c2nc3c(O[C@H]4CCN(C(=O)c5cccnc5)C4)ncnc3n2C)c1C [Compound 2-22, 8-(1-ethyl-5-methyl-1H-pyrazol-4-yl)-9-methyl-6-{[(3S)-1-(pyridin-3-ylcarbonyl)pyrrolidin-3-yl]oxy}-9H-purine]",>10
2,"CCn1ncc(-c2nc3c(O[C@H]4CCN(C(=O)C5CCOC(C)(C)C5)C4)ncnc3n2C)c1C (stereo partly drawn) [Compound 2-24, 6-({(3S)-1-[(2,2-dimethyltetrahydro-2H-pyran-4-yl)carbonyl]pyrrolidin-3-yl}oxy)-8-(1-ethyl-5-methyl-1H-pyrazol-4-yl)-9-methyl-9H-purine]",>10
3,"CCC(=O)N1CC[C@H](Oc2ncnc3c2nc(-c2cnc(C)nc2)n3CC)C1 [Compound 2-25, 9-ethyl-8-(2-methylpyrimidin-5-yl)-6-{[(3S)-1-propanoylpyrrolidin-3-yl]oxy}-9H-purine]",>10
4,"CCn1c(-c2cnc(C)nc2)nc2c(O[C@H]3CCN(C(=O)C4CCOCC4)C3)ncnc21 [Compound 2-26, 9-ethyl-8-(2-methylpyrimidin-5-yl)-6-{[(3S)-1-(tetrahydro-2H-pyran-4-ylcarbonyl)pyrrolidin-3-yl]oxy}-9H-purine]",>10
5,"CCn1ncc(-c2nc3c(O[C@H]4CCN(C(=O)c5coc(C)n5)C4)ncnc3n2C)c1C [Compound 2-27, 8-(1-ethyl-5-methyl-1H-pyrazol-4-yl)-9-methyl-6-({(3S)-1-[(2-methyl-1,3-oxazol-4-yl)carbonyl]pyrrolidin-3-yl}oxy)-9H-purine]",>10
6,"CCn1ncc(-c2nc3c(O[C@H]4CCN(C(=O)c5nc(C)oc5C)C4)ncnc3n2C)c1C [Compound 2-28, 6-({(3S)-1-[(2,5-dimethyl-1,3-oxazol-4-yl)carbonyl]pyrrolidin-3-yl}oxy)-8-(1-ethyl-5-methyl-1H-pyrazol-4-yl)-9-methyl-9H-purine]",>10
7,"CCn1ncc(-c2nc3c(O[C@H]4CCN(C(=O)c5cnon5)C4)ncnc3n2C)c1C [Compound 2-29, 8-(1-ethyl-5-methyl-1H-pyrazol-4-yl)-9-methyl-6-{[(3S)-1-(1,2,5-oxadiazol-3-ylcarbonyl)pyrrolidin-3-yl]oxy}-9H-purine]",1
8,"CCn1ncc(-c2nc3c(O[C@H]4CCN(C(=O)c5cnn(C(C)C)c5)C4)ncnc3n2C)c1C [Compound 2-31, 8-(1-ethyl-5-methyl-1H-pyrazol-4-yl)-9-methyl-6-{[(3S)-1-{[1-(1-methylethyl)-1H-pyrazol-4-yl]carbonyl}pyrrolidin-3-yl]oxy}-9H-purine]",5
9,"CCn1ncc(-c2nc3c(O[C@H]4CCN(C(=O)c5ccno5)C4)ncnc3n2C)c1C [Compound 2-32, 8-(1-ethyl-5-methyl-1H-pyrazol-4-yl)-6-{[(3S)-1-(isoxazol-5-ylcarbonyl)pyrrolidin-3-yl]oxy}-9-methyl-9H-purine]",>10
10,"CCn1ncc(-c2nc3c(O[C@H]4CCN(C(=O)c5ccn[nH]5)C4)ncnc3n2C)c1C [Compound 2-33, 8-(1-ethyl-5-methyl-1H-pyrazol-4-yl)-9-methyl-6-{[(3S)-1-(1H-pyrazol-5-ylcarbonyl)pyrrolidin-3-yl]oxy}-9H-purine]",>10
11,"CCn1ncc(-c2nc3c(O[C@H]4CCN(C(=O)c5nonc5C)C4)ncnc3n2C)c1C [Compound 2-35, 8-(1-ethyl-5-methyl-1H-pyrazol-4-yl)-9-methyl-6-({(3S)-1-[(4-methyl-1,2,5-oxadiazol-3-yl)carbonyl]pyrrolidin-3-yl}oxy)-9H-purine]",>10
12,"CCn1ncc(-c2nc3c(O[C@H]4CCN(C(=O)c5ccnn5C)C4)ncnc3n2C)c1C [Compound 2-36, 8-(1-ethyl-5-methyl-1H-pyrazol-4-yl)-9-methyl-6-({(3S)-1-[(1-methyl-1H-pyrazol-5-yl)carbonyl]pyrrolidin-3-yl}oxy)-9H-purine]",>10
13,"CCn1ncc(-c2nc3c(O[C@H]4CCN(C(=O)c5ccn(C)n5)C4)ncnc3n2C)c1C [Compound 2-37, 8-(1-ethyl-5-methyl-1H-pyrazol-4-yl)-9-methyl-6-({(3S)-1-[(1-methyl-1H-pyrazol-3-yl)carbonyl]pyrrolidin-3-yl}oxy)-9H-purine]",>10
14,"CCn1ncc(-c2nc3c(O[C@H]4CCN(C(=O)c5cc(C)nn5C)C4)ncnc3n2C)c1C [Compound 2-38, 6-({(3S)-1-[(1,3-dimethyl-1H-pyrazol-5-yl)carbonyl]pyrrolidin-3-yl}oxy)-8-(1-ethyl-5-methyl-1H-pyrazol-4-yl)-9-methyl-9H-purine]",7
15,"CCn1ncc(-c2nc3c(O[C@H]4CCN(C(=O)c5nccn5C)C4)ncnc3n2C)c1C [Compound 2-39, 8-(1-ethyl-5-methyl-1H-pyrazol-4-yl)-9-methyl-6-({(3S)-1-[(1-methyl-1H-imidazol-2-yl)carbonyl]pyrrolidin-3-yl}oxy)-9H-purine]",>10
16,"CCn1ncc(-c2nc3c(O[C@H]4CCN(C(=O)c5c[nH]nn5)C4)ncnc3n2C)c1C [Compound 2-40, 8-(1-ethyl-5-methyl-1H-pyrazol-4-yl)-9-methyl-6-{[(3S)-1-(1H-1,2,3-triazol-4-ylcarbonyl)pyrrolidin-3-yl]oxy}-9H-purine]",2
17,"CCn1ncc(-c2nc3c(O[C@H]4CCN(C(=O)c5cnn6cccnc56)C4)ncnc3n2C)c1C [Compound 2-41, 8-(1-ethyl-5-methyl-1H-pyrazol-4-yl)-9-methyl-6-{[(3S)-1-(pyrazolo[1,5-a]pyrimidin-3-ylcarbonyl)pyrrolidin-3-yl]oxy}-9H-purine]",6
18,"CCn1ncc(-c2nc3c(O[C@H]4CCN(C(=O)c5nnc6n5CCCC6)C4)ncnc3n2C)c1C [Compound 2-42, 8-(1-ethyl-5-methyl-1H-pyrazol-4-yl)-9-methyl-6-{[(3S)-1-(5,6,7,8-tetrahydro[1,2,4]triazolo[4,3-a]pyridin-3-ylcarbonyl)pyrrolidin-3-yl]oxy}-9H-purine]",3
19,"CCn1ncc(-c2nc3c(O[C@H]4CCN(C(=O)c5c[nH]nc5C(F)(F)F)C4)ncnc3n2C)c1C [Compound 2-43, 8-(1-ethyl-5-methyl-1H-pyrazol-4-yl)-9-methyl-6-{[(3S)-1-{[3-(trifluoromethyl)-1H-pyrazol-4-yl]carbonyl}pyrrolidin-3-yl]oxy}-9H-purine]",10
20,"CCn1ncc(-c2nc3c(O[C@H]4CCN(C(=O)c5cn(C)nn5)C4)ncnc3n2C)c1C [Compound 2-44, 8-(1-ethyl-5-methyl-1H-pyrazol-4-yl)-9-methyl-6-({(3S)-1-[(1-methyl-1H-1,2,3-triazol-4-yl)carbonyl]pyrrolidin-3-yl}oxy)-9H-purine]",9
21,"CCn1ncc(-c2nc3c(O[C@H]4CCN(C(=O)c5nnsc5C)C4)ncnc3n2C)c1C [Compound 2-46, 8-(1-ethyl-5-methyl-1H-pyrazol-4-yl)-9-methyl-6-({(3S)-1-[(5-methyl-1,2,3-thiadiazol-4-yl)carbonyl]pyrrolidin-3-yl}oxy)-9H-purine]",>10
22,"CCn1ncc(-c2nc3c(O[C@H]4CCN(C(=O)c5nc6cc(Cl)ccn6n5)C4)ncnc3n2C)c1C [Compound 2-47, 6-({(3S)-1-[(7-chloro[1,2,4]triazolo[1,5-a]pyridin-2-yl)carbonyl]pyrrolidin-3-yl}oxy)-8-(1-ethyl-5-methyl-1H-pyrazol-4-yl)-9-methyl-9H-purine]",1
23,"CCn1ncc(-c2nc3c(O[C@H]4CCN(C(=O)c5[nH]ncc5C)C4)ncnc3n2C)c1C [Compound 2-48, 8-(1-ethyl-5-methyl-1H-pyrazol-4-yl)-9-methyl-6-({(3S)-1-[(4-methyl-1H-pyrazol-5-yl)carbonyl]pyrrolidin-3-yl}oxy)-9H-purine]",>10
24,"CCn1ncc(-c2nc3c(O[C@H]4CCN(C(=O)c5noc(C(C)(C)O)n5)C4)ncnc3n2C)c1C [Compound 2-50, 2-(3-{[(3S)-3-{[8-(1-ethyl-5-methyl-1H-pyrazol-4-yl)-9-methyl-9H-purin-6-yl]oxy}pyrrolidin-1-yl]carbonyl}-1,2,4-oxadiazol-5-yl)propan-2-ol]",8
25,"CCn1ncc(-c2nc3c(O[C@H]4CCN(C(=O)c5conc5C)C4)ncnc3n2C)c1C [Compound 2-51, 8-(1-ethyl-5-methyl-1H-pyrazol-4-yl)-9-methyl-6-({(3S)-1-[(3-methylisoxazol-4-yl)carbonyl]pyrrolidin-3-yl}oxy)-9H-purine]",>10
26,"CCn1ncc(-c2nc3c(O[C@H]4CCN(C(=O)c5ccnn5C(C)C)C4)ncnc3n2C)c1C [Compound 2-52, 8-(1-ethyl-5-methyl-1H-pyrazol-4-yl)-9-methyl-6-{[(3S)-1-{[1-(1-methylethyl)-1H-pyrazol-5-yl]carbonyl}pyrrolidin-3-yl]oxy}-9H-purine]",>10
27,"CCn1ncc(-c2nc3c(O[C@H]4CCN(C(=O)c5ccnc(C)c5)C4)ncnc3n2C)c1C [Compound 2-56, 8-(1-ethyl-5-methyl-1H-pyrazol-4-yl)-9-methyl-6-({(3S)-1-[(2-methylpyridin-4-yl)carbonyl]pyrrolidin-3-yl}oxy)-9H-purine]",>10
28,"CCn1ncc(-c2nc3c(O[C@H]4CCN(C(=O)c5ncoc5C)C4)ncnc3n2C)c1C [Compound 2-57, 8-(1-ethyl-5-methyl-1H-pyrazol-4-yl)-9-methyl-6-({(3S)-1-[(5-methyl-1,3-oxazol-4-yl)carbonyl]pyrrolidin-3-yl}oxy)-9H-purine]",>10
